Drawing on ChEMBL document CHEMBL2439959, “Structural study of the location of the phenyl tail of benzene sulfonamides and the effect on human carbonic anhydrase inhibition” (Bioorg Med Chem, 2013), this text covers Ki for two molecules.

Experiment [1] addresses Carbonic anhydrase 5A, mitochondrial (Homo sapiens, UniProt P35218).
Experiment [2] addresses Carbonic anhydrase 5B, mitochondrial (Homo sapiens, UniProt Q9Y2D0).

Sequence of Carbonic anhydrase 5B, mitochondrial (Q9Y2D0 whole entry): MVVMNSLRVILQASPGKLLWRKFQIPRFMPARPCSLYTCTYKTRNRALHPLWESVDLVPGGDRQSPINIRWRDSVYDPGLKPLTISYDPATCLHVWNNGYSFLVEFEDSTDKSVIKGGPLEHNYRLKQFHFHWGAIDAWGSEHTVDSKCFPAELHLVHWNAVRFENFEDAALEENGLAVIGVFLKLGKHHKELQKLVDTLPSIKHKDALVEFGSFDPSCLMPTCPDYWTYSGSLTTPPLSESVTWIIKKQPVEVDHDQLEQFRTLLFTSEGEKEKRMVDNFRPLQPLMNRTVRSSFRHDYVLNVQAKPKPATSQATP
Sequence of Carbonic anhydrase 5A, mitochondrial (P35218 whole entry): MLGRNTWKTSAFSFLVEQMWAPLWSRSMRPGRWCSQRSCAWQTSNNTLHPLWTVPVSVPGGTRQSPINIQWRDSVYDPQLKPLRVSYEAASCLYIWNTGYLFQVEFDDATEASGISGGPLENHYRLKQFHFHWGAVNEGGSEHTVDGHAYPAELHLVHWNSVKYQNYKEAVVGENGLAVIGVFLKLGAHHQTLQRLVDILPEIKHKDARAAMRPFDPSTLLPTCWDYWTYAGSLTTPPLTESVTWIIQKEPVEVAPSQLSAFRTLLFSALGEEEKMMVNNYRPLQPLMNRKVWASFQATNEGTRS

On to `NS(=O)(=O)c1ccc(Nc2nc(Cl)nc(NCCO)n2)cc1`, for which the Ki came out at 451 nM in experiment [1] and 340 nM in experiment [2].
As to `NS(=O)(=O)c1ccc(NC(=O)Cc2ccccc2)cc1`, the Ki in experiment [1] was 13 nM; in experiment [2], 10 nM.
